Tested on: 885724-159-R-J1-PDC spheroids viability
Experiment: Anticancer human tumor 885724-159-R-J1-PDC patient-derived pancreatic adenocarcinoma cell line growth inhibition [TAK]
Settings: spheroids with HUVEC and MSC; for IC50: curve of first compound; for viability, T/C: stronger effect = lower value
Outline: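 Drug combinations, each paired with TAK-243 or ipatasertib, were tested on multi-cell spheroids of 60% malignant cells, 25% HUVEC and 15% hMSC. Top concentrations were at or near the clinical Cmax (10 microM if undetermined), decreasing by half-log; viability is given as % test/control.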

[1] = second compound 0.3 µM, first compound 0.0316 µM
[2] = second compound 0.3 µM, first compound 0.1 µM
[3] = second compound 0.3 µM, first compound 0.316 µM
[4] = second compound 0.3 µM, first compound 1 µM
[5] = second compound 0.3 µM, first compound 3.16 µM
[6] = second compound 0.3 µM, first compound 10 µM
[7] = second compound 0.949 µM, first compound 0.0316 µM
[8] = second compound 0.949 µM, first compound 0.1 µM
[9] = second compound 0.949 µM, first compound 0.316 µM
[10] = second compound 0.949 µM, first compound 1 µM
[11] = second compound 0.949 µM, first compound 3.16 µM
[12] = second compound 0.949 µM, first compound 10 µM
[13] = second compound 3 µM, first compound 0.0316 µM
[14] = second compound 3 µM, first compound 0.1 µM
[15] = second compound 3 µM, first compound 0.316 µM
[16] = second compound 3 µM, first compound 1 µM
[17] = second compound 3 µM, first compound 3.16 µM
[18] = second compound 3 µM, first compound 10 µM
[19] = second compound 9.49 µM, first compound 0.0316 µM
[20] = second compound 9.49 µM, first compound 0.1 µM
[21] = second compound 9.49 µM, first compound 0.316 µM
[22] = second compound 9.49 µM, first compound 1 µM
[23] = second compound 9.49 µM, first compound 3.16 µM
[24] = second compound 9.49 µM, first compound 10 µM
[25] = second compound 30 µM, first compound 0.0316 µM
[26] = second compound 30 µM, first compound 0.1 µM
[27] = second compound 30 µM, first compound 0.316 µM
[28] = second compound 30 µM, first compound 1 µM
[29] = second compound 30 µM, first compound 3.16 µM
[30] = second compound 30 µM, first compound 10 µM
[31] = second compound 0.3 µM, first compound 0.000316 µM
[32] = second compound 0.3 µM, first compound 0.001 µM
[33] = second compound 0.3 µM, first compound 0.00316 µM
[34] = second compound 0.3 µM, first compound 0.01 µM
[35] = second compound 0.949 µM, first compound 0.000316 µM
[36] = second compound 0.949 µM, first compound 0.001 µM
[37] = second compound 0.949 µM, first compound 0.00316 µM
[38] = second compound 0.949 µM, first compound 0.01 µM
[39] = second compound 3 µM, first compound 0.000316 µM
[40] = second compound 3 µM, first compound 0.001 µM
[41] = second compound 3 µM, first compound 0.00316 µM
[42] = second compound 3 µM, first compound 0.01 µM
[43] = second compound 9.49 µM, first compound 0.000316 µM
[44] = second compound 9.49 µM, first compound 0.001 µM
[45] = second compound 9.49 µM, first compound 0.00316 µM
[46] = second compound 9.49 µM, first compound 0.01 µM
[47] = second compound 30 µM, first compound 0.000316 µM
[48] = second compound 30 µM, first compound 0.001 µM
[49] = second compound 30 µM, first compound 0.00316 µM
[50] = second compound 30 µM, first compound 0.01 µM
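Also: spheroids exposed to drugs for seven days.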
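For viability, T/C in this document: 100% = DMSO vehicle control viability.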

In the case of `CC(C)(C)c1nc(-c2cccc(NS(=O)(=O)c3c(F)cccc3F)c2F)c(-c2ccnc(N)n2)s1` + CC(C)NCC(C(=O)N1CCN(c2ncnc3c2C(C)CC3O)CC1)c1ccc(Cl)cc1, the IC50 (second compound 0.3 µM) is reported as over 10000 nM, the IC50 (second compound 0.949 µM) is reported as over 10000 nM and the IC50 (second compound 3 µM) is reported as over 10000 nM. For the same molecule, the IC50 (second compound 9.49 µM) was 8870 nM, the IC50 (second compound 30 µM) was under 31.6 nM and the viability, T/C [1] was 85.2%. For the same molecule, the viability, T/C [2] was 101%, the viability, T/C [3] was 112% and the viability, T/C [4] was 134%. It also gave a viability, T/C [5] of 134%, a viability, T/C [6] of 121% and a viability, T/C [7] of 72.3%. The viability, T/C [8] was 100%, the viability, T/C [9] was 111% and the viability, T/C [10] was 117%. It also gave a viability, T/C [11] of 92.2%, a viability, T/C [12] of 80.5% and a viability, T/C [13] of 68.2%. The viability, T/C [14] was 90.7%, the viability, T/C [15] was 94% and the viability, T/C [16] was 96%. It also gave a viability, T/C [17] of 73.4%, a viability, T/C [18] of 57.6% and a viability, T/C [19] of 57.1%. For the same molecule, the viability, T/C [20] was 71.3%, the viability, T/C [21] was 77% and the viability, T/C [22] was 76.1%. For the same molecule, the viability, T/C [23] was 56.1%, the viability, T/C [24] was 49.3% and the viability, T/C [25] was 37.7%. The viability, T/C [26] was 41.3%, the viability, T/C [27] was 46.9% and the viability, T/C [28] was 42.7%. It also gave a viability, T/C [29] of 41.6% and a viability, T/C [30] of 37.7%.
`CC(C)CC(NC(=O)CNC(=O)c1cc(Cl)ccc1Cl)B1OC(=O)CC(CC(=O)O)(C(=O)O)O1` (stereo not given) + CC(C)NCC(C(=O)N1CCN(c2ncnc3c2C(C)CC3O)CC1)c1ccc(Cl)cc1 showed an IC50 (second compound 0.3 µM) of 13.8 nM, an IC50 (second compound 0.949 µM) of 12.1 nM and an IC50 (second compound 3 µM) of 11.6 nM. It also gave an IC50 (second compound 9.49 µM) of under 0.316 nM, an IC50 (second compound 30 µM) of under 0.316 nM and a viability, T/C [31] of 66.6%. The viability, T/C [32] was 66.3%, the viability, T/C [33] was 63.6% and the viability, T/C [34] was 63.3%. It also gave a viability, T/C [1] of 15.4%, a viability, T/C [2] of 1.16% and a viability, T/C [35] of 57.5%. For the same molecule, the viability, T/C [36] was 61%, the viability, T/C [37] was 62.2% and the viability, T/C [38] was 58.3%. The viability, T/C [7] was 8.98%, the viability, T/C [8] was 1.18% and the viability, T/C [39] was 55.5%. For the same molecule, the viability, T/C [40] was 58.3%, the viability, T/C [41] was 53.1% and the viability, T/C [42] was 55.9%. The viability, T/C [13] was 11.1%, the viability, T/C [14] was 0.99% and the viability, T/C [43] was 48.5%. For the same molecule, the viability, T/C [44] was 52.1%, the viability, T/C [45] was 48.5% and the viability, T/C [46] was 46.1%. For the same molecule, the viability, T/C [19] was 9.27%, the viability, T/C [20] was 1.07% and the viability, T/C [47] was 33.9%. The viability, T/C [48] was 33.5%, the viability, T/C [49] was 34.7% and the viability, T/C [50] was 32.9%. It also gave a viability, T/C [25] of 7.76% and a viability, T/C [26] of 0.71%.
`CC(C)n1nc(-c2ccc3oc(N)nc3c2)c2c(N)ncnc21` + CC(C)NCC(C(=O)N1CCN(c2ncnc3c2C(C)CC3O)CC1)c1ccc(Cl)cc1 gave an IC50 (second compound 0.3 µM) of 18.5 nM, an IC50 (second compound 0.949 µM) of 6.88 nM and an IC50 (second compound 3 µM) of 3.15 nM. It also gave an IC50 (second compound 9.49 µM) of under 0.316 nM, an IC50 (second compound 30 µM) of under 0.316 nM and a viability, T/C [31] of 66.2%. The viability, T/C [32] was 64.1%, the viability, T/C [33] was 56.8% and the viability, T/C [34] was 53.9%. The viability, T/C [1] was 48.6%, the viability, T/C [2] was 37.1% and the viability, T/C [35] was 57.2%. The viability, T/C [36] was 63.5%, the viability, T/C [37] was 54% and the viability, T/C [38] was 47.5%. For the same molecule, the viability, T/C [7] was 38.4%, the viability, T/C [8] was 33.6% and the viability, T/C [39] was 58.1%. It also gave a viability, T/C [40] of 61.8%, a viability, T/C [41] of 47.7% and a viability, T/C [42] of 38.8%. The viability, T/C [13] was 31.5%, the viability, T/C [14] was 28.6% and the viability, T/C [43] was 47.4%. It also gave a viability, T/C [44] of 45.6%, a viability, T/C [45] of 38.3% and a viability, T/C [46] of 30.9%. It also gave a viability, T/C [19] of 25.5%, a viability, T/C [20] of 23% and a viability, T/C [47] of 32%. The viability, T/C [48] was 29.5%, the viability, T/C [49] was 30.2% and the viability, T/C [50] was 20.5%. For the same molecule, the viability, T/C [25] was 19% and the viability, T/C [26] was 16.4%.
In the case of `CCCS(=O)(=O)Nc1ccc(F)c(C(=O)c2c[nH]c3ncc(-c4ccc(Cl)cc4)cc23)c1F` + CC(C)NCC(C(=O)N1CCN(c2ncnc3c2C(C)CC3O)CC1)c1ccc(Cl)cc1, the IC50 (second compound 0.3 µM) is reported as over 100000 nM, the IC50 (second compound 0.949 µM) is reported as over 100000 nM and the IC50 (second compound 3 µM) is reported as 25100 nM. For the same molecule, the IC50 (second compound 9.49 µM) was 8750 nM, the IC50 (second compound 30 µM) was under 316 nM and the viability, T/C [3] was 79.3%. The viability, T/C [4] was 93.8%, the viability, T/C [5] was 104% and the viability, T/C [6] was 89.7%. The viability, T/C (second compound 0.3 µM, first compound 31.6 µM) was 99.7%, the viability, T/C (second compound 0.3 µM, first compound 100 µM) was 105% and the viability, T/C [9] was 66.1%. The viability, T/C [10] was 78.4%, the viability, T/C [11] was 76.2% and the viability, T/C [12] was 74.2%. The viability, T/C (second compound 0.949 µM, first compound 31.6 µM) was 34.7%, the viability, T/C (second compound 0.949 µM, first compound 100 µM) was 76.6% and the viability, T/C [15] was 66.4%. The viability, T/C [16] was 71.8%, the viability, T/C [17] was 67.1% and the viability, T/C [18] was 63.9%. The viability, T/C (second compound 3 µM, first compound 31.6 µM) was 34.2%, the viability, T/C (second compound 3 µM, first compound 100 µM) was 58.8% and the viability, T/C [21] was 58.5%. For the same molecule, the viability, T/C [22] was 58.4%, the viability, T/C [23] was 58.6% and the viability, T/C [24] was 48.9%. The viability, T/C (second compound 9.49 µM, first compound 31.6 µM) was 13.4%, the viability, T/C (second compound 9.49 µM, first compound 100 µM) was 47.2% and the viability, T/C [27] was 37.5%. It also gave a viability, T/C [28] of 40.9%, a viability, T/C [29] of 36.6% and a viability, T/C [30] of 12.8%. The viability, T/C (second compound 30 µM, first compound 31.6 µM) was 3.55% and the viability, T/C (second compound 30 µM, first compound 100 µM) was 23.1%.
